Structure (SMILES) | melting point [°C]
CN(C)C(=O)Cc1nn(-c2ccncc2)c(=O)c2c1c1ccc(F)cc1n2C.Cl | 267 to 270
CN(C)C(=O)Cc1nn(-c2ccccn2)c(=O)c2c1c1ccc(F)cc1n2C [Compound 1, 7-fluoro-N,N,5-trimethyl-4-oxo-3-(pyridin-2-yl)-3,5-dihydro-4H-pyridazino[4,5-b]indole-1-acetamide] | 222 to 223
CN(C)C(=O)Cc1nn(-c2ccccn2)c(=O)c2c1c1ccc(Cl)cc1n2C [Compound 4, 7-chloro-N,N,5-trimethyl-4-oxo-3-(pyridin-2-yl)-3,5-dihydro-4H-pyridazino[4,5-b]indole-1-acetamide] | 183 to 184
Cc1ccc(-n2nc(CC(=O)N(C)C)c3c4ccc(Cl)cc4n(C)c3c2=O)cn1 [Compound 8, 7-chloro-N,N,5-trimethyl-4-oxo-3-(6-methylpyridin-3-yl)-3,5-dihydro-4H-pyridazino[4,5-b]indole-1-acetamide] | 253 to 255
CCN(CC)C(=O)Cc1nn(-c2cccnc2)c(=O)c2c1c1ccc(Cl)cc1n2C [Compound 9, 7-chloro-N,N-diethyl-5-methyl-4-oxo-3-(pyridin-3-yl)-3,5-dihydro-4H-pyridazino[4,5-b]indole-1-acetamide] | 199 to 200

Further lines, results first:

melting point [°C] | Structure (SMILES)
244 to 250 | CN(C)C(=O)Cc1nn(-c2cccnc2)c(=O)c2c1c1ccc(F)cc1n2C.Cl
250 to 252 | CN(C)C(=O)Cc1nn(-c2cccnc2)c(=O)c2c1c1ccc(Cl)cc1n2C.Cl
275 to 279 | CN(C)C(=O)Cc1nn(-c2ccncc2)c(=O)c2c1c1ccc(Cl)cc1n2C.Cl
255 to 256 | CN(C)C(=O)Cc1nn(-c2cccnc2)c(=O)c2c1c1ccc(Cl)cc1n2C [Compound 5, 7-chloro-N,N,5-trimethyl-4-oxo-3-(pyridin-3-yl)-3,5-dihydro-4H-pyridazino[4,5-b]indole-1-acetamide]

— US7235554B2, “3-heteroaryl-3,5-dihydro-4-oxo-4H-pyridazino[4,5-b] indole-1-acetamide derivatives, preparation and use thereof in medicaments” (Sanofi-Aventis, priority 2002, dated 2007)
